{
  "source": "patent US20220133701A1",
  "about": "“METHODS OF TREATING PAIN” (Yeda Research and Development Co. Ltd., priority 2019, published 2022)",
  "key": {"mice": {"tested_on": "mice", "test": "Response to noxious heat (metal probe heated to 58° C. applied to paw, paw withdrawal latency)", "assay_type": "in vivo, mouse", "protocol": "Pain Models—Responses to noxious heat were assessed by applying a metal probe heated to 58° C. to a forelimb paw, while holding the animal. Paw withdrawal latency was timed, typically ranging between 2-4 seconds in wild-type animals. If the paw was not withdrawn within 20 seconds the assay was terminated. The test was repeated three times for each animal, with at least 20 minute intervals between repeats. Heat sensitivity was also assessed using the hot plate test [L. Urien et al., Sci Rep 7, 43493 (2017)]. To this end, mice were placed individually in a 20 cm high Plexiglas box on a metal surface set at 52, 55 or 58° C., and the latency to initiate a nociceptive response (licking, hind paws shaking, jumping) was monitored by videotape. Mice were removed from the plate immediately after a nociceptive response."}, "importin α3": {"tested_on": "importin α3", "test": "Western blot of importin α3 in HEK cells transduced with AAV9 constructs", "assay_type": "cell-based", "conditions": "shα3 vs shCtrl, α3OE vs GFP (FIGS. 3A-C)", "protocol": "Transfection and Western blot analysis: Knockdown and overexpression constructs were tested in HEK or N2A cells transfected using JetPEI (Polyplus) according to manufacturer's instructions and lysed 48 hours later in RIPA buffer supplemented with protease inhibitors (Complete, Roche). For Western blot analysis, 5 μg of protein was separated on TGX Protean 5-15% gradient gels (Biorad) and transferred to nitrocellulose membranes. Membranes were blocked with 5% dried milk-TBST and probed overnight with an importin α3 antibody (1:5000) and GAPDH (MAB374, Millipore, 1:5000) as a loading control in 2% milk-TBST, followed by an anti-mouse HRP-conjugated antibody (#1706516 Biorad). Chemiluminescence was detected with Amersham Imager 600 and band intensities were quantified using the built-in software. AAV production and intrathecal injection: Purified adeno-associated virus (AAV) or the peripheral neuron specific PHP.S (AAV-PHP.S) [K. Y. Chan et al., Nat Neurosci 20, 1172-1179 (2017)] was produced in HEK 293T cells (ATCC®), with the AAVpro® Purification Kit (All Serotypes) from TaKaRa (#6666). For each construct ten 15 cm plates were transfected with 20 μg of DNA (AAV-plasmid containing the construct of interest and two AASV9 or AAV-PHP.S helper plasmids) using jetPEI® (Polyplus) in DMEM medium without serum or antibiotics. […]"}, "Kpna4/importin α3 mRNA": {"tested_on": "Kpna4/importin α3 mRNA", "test": "RT-qPCR of importin α3 (Kpna4) mRNA in DRG cultures after intrathecal AAV", "assay_type": "in vivo, mouse", "conditions": "DRG cultures from mice one month following intrathecal injection; vs shCtrl (FIG. 3F)", "protocol": "Gene expression analysis by RT-qPCR: Total RNA from DRG neuronal cultures and DRG tissue from SNI mice were extracted using the Ambion RNAqueous-Micro total RNA isolation kit (Life Technologies Corp.). RNA purity, integrity (RIN>8) and concentration was determined, and 100-200 ng of total RNA was then used to synthesize cDNA using SuperScript III (Invitrogen). RT-qPCR was performed on a ViiA7 System (Applied Biosystems) using PerfeCTa SYBR Green (Quanta Biosciences, Gaithersburg, USA). Forward/Reverse primers were designed for different exons and the RNA was treated with […] to avoid false-positives. Amplicon specificity was verified by melting curve analysis. All RT-qPCR reactions were conducted in technical triplicates and the results were averaged for each sample, normalized to Actb levels and the relevant reporter genes such as GFP and for the viruses; and analyzed using the comparative ΔΔCt method [Livak & Schmittgen. Methods 25, 402 (2001)]. The following primers (Mus musculus) were used: […]"}, "SNI mice": {"tested_on": "SNI mice", "test": "CatWalk gait analysis (footprint width) in SNI mice", "assay_type": "in vivo, mouse", "conditions": "AAV9 shRNA, 60 days post-injury, vs shCtrl (FIG. 4D)", "protocol": "CatWalk gait analysis and training was carried out as previously described [Perry et al. Neuron 75, 294 (2012)]. Motivation was achieved by a combination of food restriction during the initial training and placing of palatable reward at runway ends. The test was repeated three times for each mouse. Data were collected and analyzed using the Catwalk Ethovision XT11 software (Noldus Information Technology, The Netherlands). The analyzed indices are reported for each animal as print area and print width."}},
  "data": [
    {"substance": "shα3: AAV9 expressing an importin α3 targeting shRNA (SEQ ID NO: 8), intrathecal injection (DNA GATCCGGCTTTGACAAACATTGCATGAAGCTTGATGCAATGTTTGTCAAAGCCTTTTTT)", "values": [
      {"measurement": "response to noxious heat", "setting": "mice; importin α3 knockout (−/−) mice after intrathecal AAV9 construct", "value": "No further alteration of the noxious heat response"},
      {"measurement": "response to noxious heat", "setting": "mice; importin α3 knockout (−/−) mice after intrathecal AAV9 construct, listed as anti-importin α3 shRNAs", "value": "no further effect on responses to noxious heat"},
      {"measurement": "response to noxious heat", "setting": "mice; wild type mice after intrathecal injection of AAV9 construct, vs control construct", "value": "reduced response of WT mice to noxious heat"},
      {"measurement": "response to noxious heat", "setting": "mice; wild type mice after intrathecal injection of AAV9 construct, vs control construct, listed as anti-importin α3 shRNAs", "value": "delayed paw withdrawal latency to noxious heat"},
      {"measurement": "impα3 protein level (western blot, GAPDH normalized)", "setting": "importin α3", "value": "downregulation"},
      {"measurement": "impα3 mRNA (RT-qPCR, log 2 fold-change normalized to GFP)", "setting": "Kpna4/importin α3 mRNA", "value": "significant downregulation of impα3 mRNA"},
      {"measurement": "footprint width / paw morphology and gait parameters, Catwalk", "setting": "SNI mice", "value": "significant recovery by 60 days"},
      {"measurement": "footprint width / paw morphology and gait parameters, Catwalk", "setting": "SNI mice; listed as anti-importin α3 shRNA", "value": "regained unaltered paw morphology and gait parameters"}
    ]}
  ]
}
